Measurements reported in patent publication US5703094A, “Quinolone- and naphthyridonecarboxylic acid derivatives” (Bayer Aktiengesellschaft, priority 1995, dated 1997).
Converted amounts (≈) assume the structure as drawn. One block for each compound: values may come before it.

Tests used:
Staph. aureus 133 = assay: minimum inhibitory concentration, series dilution method on Iso-Sensitest agar; format: cell-based; conditions: Staphylococcus aureus, 37° C., about 20 hours
Experimental: (§1) Tables 9 and 10 show the minimum inhibitory concentrations (MIC values), as a measure of the antibacterial activity, and the ID50 values, as a measure of the interactions with mammalian DNA of a substance, both for compounds according to the invention and for reference compounds from the prior art (EP 520 240).
(§2) The minimum inhibitory concentrations (MIC) were determined by a series dilution method on Iso-Sensitest agar (Oxoid). For each test substance, a series of agar plates each comprising concentrations of the active compound decreasing by double dilution in each case was prepared. The agar plates were inoculated with a multipoint inoculator (Denley). Overnight cultures of the pathogens which had been diluted beforehand such that each inoculation point comprised about 10^4 colony-forming particles were used for the inoculation. The inoculated agar plates were incubated at 37° C. and the germ growth was read off after about 20 hours. The MIC value (μg/ml) indicates the lowest active compound concentration at which no growth was detectable with the naked eye.

E. coli Neumann = assay: as above; format: cell-based; conditions: Escherichia coli, 37° C., about 20 hours
Experimental: as §1, §2

Staph. aureus ICB 25701 = assay: as above; format: cell-based; conditions: Staphylococcus aureus, ICB25701, 37° C., about 20 hours
Experimental: as §1, §2

Ps. aeruginosa Walter = assay: as above; format: cell-based; conditions: Pseudomonas aeruginosa, 37° C., about 20 hours
Experimental: as §1, §2

[1] = inhibition of DNA synthesis in CHO-KI cells (interactions with mammalian DNA), fluorophotometric; format: cell-based, Chinese hamster; conditions: hamster, cho-k1 cells, measure of interactions with mammalian DNA, read-out: ID50 (concentration at which DNA synthesis is inhibited by 50%)
Excerpt: as §1
The ID50 is understood as meaning the concentration of a substance at which DNA synthesis in cells from ovaries of the Chinese hamster (CHO-KI) is inhibited by 50%. This value is determined after incubation of the corresponding substances in decreasing dilution stages over defined periods of time. For this, the DNA synthesis in CHO-KI cells is determined in comparison with controls by means of fluorophotometric methods.

Compound: N[C@@H]1CCC=C2CN(c3cc4c(cc3F)c(=O)c(C(=O)O)cn4C3CC3)C[C@@H]21 (racemic) [Example 2, 7-[(3aRS,4RS)-4-amino-2,3,3a,4,5,6-hexahydro-1H-isoindol-2-yl]-1-cyclopropyl-6-fluoro-1,4-dihydro-4-oxo-3-quinolinecarboxylic acid]
- MIC (Staph. aureus 133): ≤ 0.015 µg/mL
- MIC (E. coli Neumann): ≤ 0.015 µg/mL
- MIC (Staph. aureus ICB 25701): 0.125 µg/mL (≈ 0.326 µM)
- MIC (Ps. aeruginosa Walter): 1 µg/mL (≈ 2.61 µM)
- IC50 [1]: 2 µg/mL (≈ 5.22 µM)

Compound: N[C@@H]1CCC=C2CN(c3c(F)cc4c(=O)c(C(=O)O)cn([C@@H]5C[C@@H]5F)c4c3F)C[C@@H]21 (relative stereo) [Example 4, 7-[(3aRS,4RS)-4-amino-2,3,3a,4,5,6-hexahydro-1H-isoindol-2-yl]-6,8-difluoro-1-(cis-2-fluorocyclopropyl)-1,4-dihydro-4-oxo-3-quinolinecarboxylic acid]
- MIC (Staph. aureus 133): ≤ 0.015 µg/mL
- MIC (E. coli Neumann): ≤ 0.015 µg/mL
- MIC (Staph. aureus ICB 25701): 0.03 µg/mL (≈ 0.0715 µM)
- MIC (Ps. aeruginosa Walter): 0.25 µg/mL (≈ 0.596 µM)
- IC50 [1]: 2 µg/mL (≈ 4.77 µM)

Compound: NC1C=CCC2CN(c3c(F)cc4c(=O)c(C(=O)O)cn(C5CC5)c4c3F)CC12 (centres unmarked) [Example 17 B, 7(4-amino-1,3,3a,4,7,7a-hexahydro-isoindol-2-yl)-1-cyclopropyl-6,8-difluoo-1,4-dihydro-4-oxo-3-quinolinecarboxylic acid, reference compound]
- MIC (Staph. aureus 133): ≤ 0.015 µg/mL
- MIC (E. coli Neumann): ≤ 0.015 µg/mL
- MIC (Staph. aureus ICB 25701): 0.03 µg/mL (≈ 0.0747 µM)
- MIC (Ps. aeruginosa Walter): 0.25 µg/mL (≈ 0.623 µM)
- IC50 [1]: 0.01 µg/mL (≈ 0.0249 µM)

Compound: NC1C=CCC2CN(c3c(F)cc4c(=O)c(C(=O)O)cn(C5CC5)c4c3Cl)CC12 (centres unmarked) [Example 18 A, 7(4-amino-1,3,3a4,7,7a-hexahydro-isoindol-2-yl)-8-chloro-1-cyclopropyl-6-luoro-1,4-dihydro-4-oxo-3-quinolinecarboxylic acid, reference compound]
- MIC (Staph. aureus 133): ≤ 0.015 µg/mL
- MIC (E. coli Neumann): ≤ 0.015 µg/mL
- MIC (Staph. aureus ICB 25701): ≤ 0.015 µg/mL
- MIC (Ps. aeruginosa Walter): 0.25 µg/mL (≈ 0.598 µM)
- IC50 [1]: 0.06 µg/mL (≈ 0.144 µM)

Compound: NC1C=CCC2CN(c3cc4c(cc3F)c(=O)c(C(=O)O)cn4C3CC3)CC12 (centres unmarked) [Example 19, 7(4-amino-1,3,3a,4,7,7a-hexahydro-isoindol-2-yl)-1-cyclopropyl-6-fluoro-14-dihydro-4-oxo-3-quinolinecarboxylic acid, reference compound]
- MIC (Staph. aureus 133): ≤ 0.015 µg/mL
- MIC (E. coli Neumann): ≤ 0.015 µg/mL
- MIC (Staph. aureus ICB 25701): 1 µg/mL (≈ 2.61 µM)
- MIC (Ps. aeruginosa Walter): 1 µg/mL (≈ 2.61 µM)
- IC50 [1]: 1 µg/mL (≈ 2.61 µM)

The next lines start with the values.

- MIC (Staph. aureus 133): ≤ 0.015 µg/mL
- MIC (E. coli Neumann): ≤ 0.015 µg/mL
- MIC (Staph. aureus ICB 25701): ≤ 0.015 µg/mL
- MIC (Ps. aeruginosa Walter): 0.125 µg/mL (≈ 0.311 µM)
- IC50 [1]: 4 µg/mL (≈ 9.96 µM)
Compound: N[C@@H]1CCC=C2CN(c3c(F)cc4c(=O)c(C(=O)O)cn(C5CC5)c4c3F)C[C@@H]21 (racemic) [Example 1, 7-[(3aRS,4RS)-4-amino-2,3,3a,4,5,6-hexahydro-1H-isoindol-2-yl]-1-cyclopropyl-6,8-difluoro-1,4-dihydro-4-oxo-3-quinolinecarboxylic acid]

- MIC (Staph. aureus 133): ≤ 0.015 µg/mL
- MIC (E. coli Neumann): ≤ 0.015 µg/mL
- MIC (Staph. aureus ICB 25701): ≤ 0.015 µg/mL
- MIC (Ps. aeruginosa Walter): 0.5 µg/mL (≈ 1.2 µM)
- IC50 [1]: 0.1 µg/mL (≈ 0.239 µM)
Compound: N[C@@H]1CCC=C2CN(c3c(F)cc4c(=O)c(C(=O)O)cn(C5CC5)c4c3Cl)C[C@@H]21 (racemic) [Example 3, 7-[(3aRS,4RS)-4-amino-2,3,3a,4,5,6-hexahydro-1H-isoindol-2-yl]-8-chloro-1-cyclopropyl-6-fluoro-1,4-dihydro-4-oxo-3-quinolinecarboxylic acid]
